Assay results reported in PubChem BioAssay AID248 (DTP/NCI, 2004).
Several values for one entry are separate records, joined by “and”; a condition that tells them apart may be missing. Identical values can stand only once. Toxic doses and inconclusive results are not listed. Rule as the data show it: active = T/C of 150% or more; inactive = T/C below 125%.

System: L1210 leukemia ip in BDF1 mice, survival T/C
Assay: NCI In Vivo Anticancer Drug Screen. Data for tumor model L1210 Leukemia (intraperitoneal) in B6D2F1 (BDF1) mice
Details: endpoint: mean survival time, higher = longer survival
In short: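 Tumor was transplanted into mice, which were then dosed with test compound or vehicle alone. Survival was recorded for each group, and the treated figure was expressed relative to the control figure.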

[1] = dose: 100.0 mg/kg/injection, schedule: Q04DX003 (ip), vehicle: saline
[2] = dose: 200.0 mg/kg/injection, schedule: Q04DX003 (ip), vehicle: saline
[3] = dose: 100.0 mg/kg/injection, schedule: Q01DX009 (ip), vehicle: saline with Tween-80
[4] = dose: 200.0 mg/kg/injection, schedule: Q01DX009 (ip), vehicle: saline with Tween-80
[5] = dose: 100.0 mg/kg/injection, schedule: Q04DX002 (ip), vehicle: Klucel (hydroxypropylcellulose) (HPC)
[6] = dose: 200.0 mg/kg/injection, schedule: Q04DX002 (ip), vehicle: Klucel (hydroxypropylcellulose) (HPC)
[7] = dose: 200.0 mg/kg/injection, schedule: Q04DX002 (ip), vehicle: saline with Tween-80
[8] = dose: 400.0 mg/kg/injection, schedule: Q04DX002 (ip), vehicle: saline with Tween-80
[9] = dose: 100.0 mg/kg/injection, schedule: Q01DX009 (ip), vehicle: Klucel (hydroxypropylcellulose) (HPC)
[10] = dose: 200.0 mg/kg/injection, schedule: Q01DX009 (ip), vehicle: Klucel (hydroxypropylcellulose) (HPC)
[11] = dose: 75.0 mg/kg/injection, schedule: Q01DX001 (ip), vehicle: saline
[12] = dose: 150.0 mg/kg/injection, schedule: Q01DX001 (ip), vehicle: saline
[13] = dose: 100.0 mg/kg/injection, schedule: Q01DX001 (ip), vehicle: saline
[14] = dose: 200.0 mg/kg/injection, schedule: Q01DX001 (ip), vehicle: saline
[15] = dose: 400.0 mg/kg/injection, schedule: Q01DX001 (ip), vehicle: saline
[16] = dose: 100.0 mg/kg/injection, schedule: Q04DX003 (ip), vehicle: saline with Tween-80
[17] = dose: 200.0 mg/kg/injection, schedule: Q04DX003 (ip), vehicle: saline with Tween-80
[18] = dose: 400.0 mg/kg/injection, schedule: Q04DX003 (ip), vehicle: saline with Tween-80
[19] = dose: 12.5 mg/kg/injection, schedule: Q01DX009 (ip), vehicle: saline
[20] = dose: 25.0 mg/kg/injection, schedule: Q01DX009 (ip), vehicle: saline
[21] = dose: 25.0 mg/kg/injection, schedule: Q04DX003 (ip), vehicle: saline
[22] = dose: 50.0 mg/kg/injection, schedule: Q01DX009 (ip), vehicle: saline
[23] = dose: 50.0 mg/kg/injection, schedule: Q04DX003 (ip), vehicle: saline
[24] = dose: 100.0 mg/kg/injection, schedule: Q01DX001 (ip), vehicle: Klucel (hydroxypropylcellulose) (HPC)
[25] = dose: 200.0 mg/kg/injection, schedule: Q01DX001 (ip), vehicle: Klucel (hydroxypropylcellulose) (HPC)
[26] = dose: 100.0 mg/kg/injection, schedule: Q04DX003 (ip), vehicle: Klucel (hydroxypropylcellulose) (HPC)
[27] = dose: 200.0 mg/kg/injection, schedule: Q04DX003 (ip), vehicle: Klucel (hydroxypropylcellulose) (HPC)
[28] = dose: 400.0 mg/kg/injection, schedule: Q04DX003 (ip), vehicle: Klucel (hydroxypropylcellulose) (HPC)

Measured: T/C

O=C(C=C(C(F)(F)F)C(F)(F)F)c1cccc(S(=O)(=O)F)c1
inactive: dose: 3.13 mg/kg/injection, schedule: Q01DX009 (ip), vehicle: saline with Tween-80 96 % of control | dose: 6.25 mg/kg/injection, schedule: Q01DX009 (ip), vehicle: saline with Tween-80 100 % of control | dose: 12.5 mg/kg/injection, schedule: Q01DX009 (ip), vehicle: saline with Tween-80 95 % of control

COc1ccc(C(=O)CCS/C(CCO)=C(\C)N(C=O)Cc2cnc(C)nc2N)cc1
inactive: [1] 101 % of control | [2] 101 % of control | dose: 400.0 mg/kg/injection, schedule: Q04DX003 (ip), vehicle: saline 101 % of control

CC1=C2CC[C@H]3[C@@H]4CC[C@H](O)[C@@]4(C)CC[C@@H]3[C@@]2(C)CCC1=O
inactive: dose: 100.0 mg/kg/injection, schedule: Q01DX001 (sc), vehicle: steriod suspending solution 98 % of control | dose: 200.0 mg/kg/injection, schedule: Q01DX001 (sc), vehicle: steriod suspending solution 98 % of control | dose: 400.0 mg/kg/injection, schedule: Q01DX001 (sc), vehicle: steriod suspending solution 96 % of control | dose: 800.0 mg/kg/injection, schedule: Q01DX001 (sc), vehicle: steriod suspending solution 96 % of control

O=C(CNC(=O)Nc1cccc(Cl)c1Cl)N/N=C/c1ccccc1O
inactive: dose: 50.0 mg/kg/injection, schedule: Q01DX009 (ip), vehicle: saline with Tween-80 104 % of control | [3] 101 % of control | [4] 96 % of control

O=C1c2ccccc2-c2ccc(-c3ccccc3)c3cccc1c23
inactive: dose: 50.0 mg/kg/injection, schedule: Q04DX002 (ip), vehicle: Klucel (hydroxypropylcellulose) (HPC) 105 % of control | [5] 102 % of control | [6] 98 % of control | [7] 105 % of control | [8] 98 % of control

Cc1cccc(N=C/C=C/c2ccccc2)c1C
inactive: [9] 94 % of control | [10] 100 % of control | dose: 400.0 mg/kg/injection, schedule: Q01DX009 (ip), vehicle: Klucel (hydroxypropylcellulose) (HPC) 108 % of control

CCC(/C=C\C(C)C1CCC2C3C=CC45CC4CCC5(C)C3CCC12C)C(C)C (centres undefined)
inactive: dose: 100.0 mg/kg/injection, schedule: Q01DX001 (ip), vehicle: saline with Tween-80 96 % of control | dose: 200.0 mg/kg/injection, schedule: Q01DX001 (ip), vehicle: saline with Tween-80 89 % of control | dose: 400.0 mg/kg/injection, schedule: Q01DX001 (ip), vehicle: saline with Tween-80 86 % of control

Cc1[nH]nc(-c2cccnc2)c1N=NN(C)C
inactive: [11] 110 % of control | [12] 106 % of control | dose: 300.0 mg/kg/injection, schedule: Q01DX001 (ip), vehicle: saline 111 % of control

Cn1c(=O)cc(CNc2ccc(-c3ccccc3)cc2)c2ccccc21
inactive: [13] 92 % of control | [14] 90 % of control | [15] 88 % of control

NC(C(=O)O)C(C(=O)O)c1ccccc1 (centres undefined)
inactive: [5] 101 % of control | [6] 101 % of control | dose: 400.0 mg/kg/injection, schedule: Q04DX002 (ip), vehicle: Klucel (hydroxypropylcellulose) (HPC) 93 % of control

O=[N+]([O-])CC(NNC(C[N+](=O)[O-])C(Cl)(Cl)Cl)C(Cl)(Cl)Cl (centres undefined)
inactive: [3] 96 % of control | [16] 89 % of control | [4] 91 % of control | [17] 94 % of control | [18] 90 % of control

CCS/C(N)=N\N
inactive: [19] 95 % of control | [20] 98 % of control | [21] 113 % of control | [22] 104 % of control | [23] 98 % of control

C1CCC2C(C1)CCCC2CC1CCCC2CCCCC21 (centres undefined)
inactive: dose: 75.0 mg/kg/injection, schedule: Q01DX001 (ip), vehicle: acetone 100 % of control | dose: 150.0 mg/kg/injection, schedule: Q01DX001 (ip), vehicle: acetone 106 % of control | dose: 300.0 mg/kg/injection, schedule: Q01DX001 (ip), vehicle: acetone 100 % of control

CN1C2CCC1CN(Cc1ccccc1)C2
inactive: [19] 103 % of control | dose: 12.5 mg/kg/injection, schedule: Q04DX003 (ip), vehicle: saline 97 % of control | [20] 101 % of control | [21] 101 % of control | [22] 101 % of control | [23] 98 % of control

O=C1CC2=CC3C=CC(N1)C2C=C3 (centres undefined)
inactive: [16] 109 % of control | [17] 106 % of control | [18] 109 % of control

Oc1c(CN2CCOCC2)cc(CN2CCOCC2)cc1CN1CCOCC1
inactive: [13] 116 % of control | dose: 100.0 mg/kg/injection, schedule: Q01DX009 (ip), vehicle: saline 95 % of control | [16] 104 % of control | [14] 98 % of control | dose: 200.0 mg/kg/injection, schedule: Q01DX009 (ip), vehicle: saline 90 % of control | [17] 95 % of control | [15] 96 % of control | dose: 400.0 mg/kg/injection, schedule: Q01DX009 (ip), vehicle: saline 100 % of control | [18] 98 % of control

CCOC(=O)c1cnc(SC)nc1Nc1ccccc1N
inactive: dose: 50.0 mg/kg/injection, schedule: Q01DX001 (ip), vehicle: Klucel (hydroxypropylcellulose) (HPC) 94 % of control | [24] 94 % of control | [25] 101 % of control

NCCCCNc1ncnc2c1ncn2C1OC(CO)C(O)C1O (centres undefined)
inactive: dose: 100.0 mg/kg/injection, schedule: Q01DX005 (ip), vehicle: saline 104 % of control | dose: 200.0 mg/kg/injection, schedule: Q01DX005 (ip), vehicle: saline 116 % of control

COc1ccccc1/C=C(\C(=O)O)c1cccc2ccccc12
inactive: [26] 93 % of control | [27] 100 % of control | [28] 98 % of control

NCCSCCN
inactive: [9] 104 % of control | [10] 100 % of control

O=C(O)Cc1cccc(C(=O)O)c1
inactive: [13] 103 % of control | [14] 104 % of control | [15] 115 % of control

Cc1cc(=O)[nH]c2nc3ccccc3n12
inactive: [24] 108 % of control | [26] 96 % of control | [25] 95 % of control | [27] 96 % of control | dose: 400.0 mg/kg/injection, schedule: Q01DX001 (ip), vehicle: Klucel (hydroxypropylcellulose) (HPC) 111 % of control | [28] 104 % of control

NCC(O)c1ccc(O)cc1 (centres undefined)
inactive: [23] 101 % of control | [13] 93 % of control | [1] 97 % of control | [14] 93 % of control | [2] 98 % of control | [15] 101 % of control

O=C(O)CN1C(=O)C2C3C=CC(C3)C2C1=O (centres undefined)
inactive: [16] 97 % of control | [17] 94 % of control | [18] 94 % of control

Cc1cccc(CCc2ccc(Br)c(C)c2C)c1C
inactive: dose: 100.0 mg/kg/injection, schedule: Q01DX001 (ip), vehicle: carboxymethylcellulose (CMC) 100 % of control | dose: 200.0 mg/kg/injection, schedule: Q01DX001 (ip), vehicle: carboxymethylcellulose (CMC) 103 % of control | dose: 400.0 mg/kg/injection, schedule: Q01DX001 (ip), vehicle: carboxymethylcellulose (CMC) 94 % of control

CCCCCCCCOC(=O)CCCCl
inactive: dose: 100.0 mg/kg/injection, schedule: Q04DX002 (ip), vehicle: saline with Tween-80 107 % of control | [7] 100 % of control | [8] 102 % of control

CCCC/C=C(/C)C1(CC)C(=O)NC(=O)NC1=O
inactive: [11] 100 % of control and 98 % of control | [12] 93 % of control and 102 % of control

NC(=O)CN1C(=O)c2ccccc2C1=O
inactive: [3] 97 % of control | [16] 97 % of control | [4] 89 % of control | [17] 97 % of control | dose: 400.0 mg/kg/injection, schedule: Q01DX009 (ip), vehicle: saline with Tween-80 91 % of control | [18] 97 % of control

Oc1ccc(Cl)cc1/C=N/NC(=S)Nc1cccc2cccnc12
inactive: [13] 111 % of control | [14] 100 % of control | [15] 91 % of control
